Reference: the supplement of paper PMC8967900

Legend:
Experiment in all cases: selective drug sensitivity score (sDSS, relative to normal bone marrow) (sDSS (score)); higher = more potent and effective on the cell line relative to normal bone marrow cells
Settings in all cases: 72 h
NALM-16 = tested on: NALM-16
SEM cells = tested on: SEM cells
380 = tested on: 380
KASUMI-2 = tested on: KASUMI-2
KASUMI-10 = tested on: KASUMI-10
HAL-01 = tested on: HAL-01
MOLT-4 = tested on: MOLT-4
MHH-CALL-4 = tested on: MHH-CALL-4
MOLT-16 = tested on: MOLT-16
NALL-1 = tested on: NALL-1
HPB-ALL = tested on: HPB-ALL
KOPN-8 = tested on: KOPN-8
DND-41 = tested on: DND-41
MN-60 = tested on: MN-60
REH = tested on: REH
MHH-CALL-2 = tested on: MHH-CALL-2
SUP-B15 = tested on: SUP-B15
ALL-PO = tested on: ALL-PO
COG-LL-319h = tested on: COG-LL-319h
RCH-ACV = tested on: RCH-ACV
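Further: ALL cell lines in 384-well plates, five doses spanning 10,000-fold, each plate scaled between vehicle and 100 µmol/L benzalkonium chloride controls, sDSS an adapted area-under-curve metric.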

Row | Structure (SMILES) | selective drug sensitivity score (NALM-16) | selective drug sensitivity score (SEM cells) | selective drug sensitivity score 380 | selective drug sensitivity score (KASUMI-2) | selective drug sensitivity score (KASUMI-10) | selective drug sensitivity score (HAL-01) | selective drug sensitivity score (MOLT-4) | selective drug sensitivity score (MHH-CALL-4) | selective drug sensitivity score (MOLT-16) | selective drug sensitivity score (NALL-1) | selective drug sensitivity score (HPB-ALL) | selective drug sensitivity score (KOPN-8) | selective drug sensitivity score (DND-41) | selective drug sensitivity score (MN-60) | selective drug sensitivity score (REH) | selective drug sensitivity score (MHH-CALL-2) | selective drug sensitivity score (SUP-B15) | selective drug sensitivity score (ALL-PO) | selective drug sensitivity score (COG-LL-319h) | selective drug sensitivity score (RCH-ACV)
1 | CC(O)(CS(=O)(=O)c1ccc(F)cc1)C(=O)Nc1ccc(C#N)c(C(F)(F)F)c1 (stereo not given) [Bicalutamide] (top concentration 10000 nM) | 0.62 | -1.68 | 1.72 | -1.68 | -1.68 | -1.68 | 2.32 | -1.68 | 6.92 | -1.68 | -1.68 | 4.92 | -1.68 | 1.42 | -1.68 | -1.68 | 4.62 | 3.92 | 3.72 | -1.68
2 | COc1cc(Nc2c(C#N)cnc3cc(OCCCN4CCN(C)CC4)c(OC)cc23)c(Cl)cc1Cl [Bosutinib] (top concentration 10000 nM) | -3.04 | 1.96 | -0.64 | -2.04 | -1.14 | -0.54 | -0.64 | -3.14 | 0.16 | -0.94 | -2.64 | 4.56 | 0.06 | -3.24 | -1.94 | 7.66 | 16 | 0.36 | 1.66 | 5.76
3 | Cc1cc2c(F)c(Oc3ncnn4cc(OC[C@@H](C)O)c(C)c34)ccc2[nH]1 [Brivanib] (top concentration 1000 nM) | -0.04 | -0.04 | -0.04 | -0.04 | -0.04 | -0.04 | -0.04 | -0.04 | -0.04 | -0.04 | -0.04 | 0.16 | -0.04 | 2.76 | 0.96 | -0.04 | -0.04 | -0.04 | -0.04 | 1.96
4 | Cc1ccc(-c2cc(C(F)(F)F)nn2-c2ccc(S(N)(=O)=O)cc2)cc1 [Celecoxib] (top concentration 10000 nM) | -0.06 | -0.06 | 7.74 | 7.54 | -0.06 | 0.04 | 0.14 | -0.06 | 0.34 | -0.06 | -0.06 | 0.74 | 1.24 | -0.06 | -0.06 | 0.34 | 2.44 | 2.84 | 0.04 | 0.64
5 | N.N.[Cl][Pt][Cl] [Cisplatin] (top concentration 100000 nM) | -0.86 | 12.2 | 7.54 | 17.2 | 12 | 12 | 16.2 | 10.7 | 17.7 | 6.84 | 7.14 | 21.7 | 9.54 | -0.56 | 10.8 | 14.6 | 17.4 | 8.44 | 19.4 | 20.5
6 | Cc1c2oc3c(C)ccc(C(=O)N[C@@H]4C(=O)N[C@H](C(C)C)C(=O)N5CCC[C@H]5C(=O)N(C)CC(=O)N(C)[C@@H](C(C)C)C(=O)O[C@@H]4C)c3nc-2c(C(=O)N[C@@H]2C(=O)N[C@H](C(C)C)C(=O)N3CCC[C@H]3C(=O)N(C)CC(=O)N(C)[C@@H](C(C)C)C(=O)O[C@@H]2C)c(N)c1=O [Dactinomycin] (top concentration 1000 nM) | 5.24 | 11.3 | 17.2 | 15 | 17.6 | 1.04 | 17.3 | 11.6 | 18.8 | 1.44 | 6.14 | 17.8 | 11 | 8.94 | 16.3 | 12.4 | 20.7 | 8.24 | 5.94 | 18.5
7 | O=C(O)CCCCC(CCSCc1ccccc1)SCc1ccccc1 (stereo not given) [Devimistat (CPI-613)] (top concentration 10000 nM) | 0.4 | 0.6 | 1.9 | 0 | 0 | 0 | 0 | 0 | 0 | 0.1 | 0 | 0 | 0.6 | 0.1 | 0 | 0.8 | 0 | 0 | 1.3 | 0
8 | CC(=O)O[C@@]12CO[C@@H]1C[C@H](O)[C@@]1(C)C(=O)[C@H](O)C3=C(C)[C@@H](OC(=O)[C@H](O)[C@@H](NC(=O)OC(C)(C)C)c4ccccc4)C[C@@](O)([C@@H](OC(=O)c4ccccc4)[C@H]21)C3(C)C [Docetaxel] (top concentration 1000 nM) | 12.3 | 19.5 | 22.4 | 16.4 | 14.6 | 4.9 | 14.8 | 8.2 | 23.5 | 15.9 | 12.5 | 23.7 | 3.3 | -1 | 21.1 | 18.6 | 21.7 | 15.5 | 21.2 | 22.6
9 | Cc1ccc(-n2nc(C(C)(C)C)cc2NC(=O)Nc2ccc(OCCN3CCOCC3)c3ccccc23)cc1 [Doramapimod] (top concentration 10000 nM) | 7.06 | 1.06 | -0.24 | -0.24 | 1.16 | -0.24 | 2.46 | -0.24 | 4.16 | -0.24 | 2.76 | 3.76 | -0.24 | 0.66 | 5.36 | 4.56 | 5.16 | 4.16 | 1.06 | 4.56
